These results are taken from US5716950A, “Diazacycloalkanealkylsulfonamide derivatives” (Nippon Shoji Kabushiki Kaisha, priority 1994, dated 1998).

Read-outs that look alike come from different tables or passages of the source.

In series [1] the test system is passive cutaneous anaphylaxis (PCA). In words: Activity of suppressing passive cutaneous anaphylaxis (PCA). It counts as in vivo, Male Wistar rats. The conditions noted are these: Rattus norvegicus, po, 1 h, 10 mg/kg-po, 1 hour before antigen challenge; read-out: % suppression of rat PCA. On the procedure: Test compounds were examined on their antiallergic activities. […] After 48 hours, 1.0 ml of 0.5 % Evans Blue saline solution containing DNP.BSA (1 mg in protein) was injected through the tail vein to induce allergic reaction. After 30 minutes, the rats were sacrificed by bleeding and the skin of back where dye was leaked out was flayed and put it into 20 ml test tube with ground stopper. Thereto was added 1.0 ml of 1N KOH aqueous solution and then it was allowed to stand at 37° C. in incubator overnight for lysing. To this solution was added 8.3 ml of a mixture of acetone and 0.6N phosphoric acid (13:5) and the mixture was mixed well and then was filtered to remove the insoluble materials.
The test compounds were administered orally 1 hour before the antigen challenge. Suppression rate was expressed by percentage to the value in control where 0.5% aqueous methylcellulose solution was orally administered.

Series [2] deals with extracted ileum (histamine contraction). In words: Antihistaminic activity: suppression of histamine-induced contraction of extracted ileum. As to conditions: histamine 3×10^-7 M; guinea pig ileum; 50% suppression of contraction; read-out: anti-His in extracted ileum EC50. On the set-up: species or system Female Hartley guinea pig. As to the method: Female Hartley guinea pig (weighing 500 to 650 g) were sacrificed and the ileum (length of about 10 to 25 cm) was extracted from the ileocecum to prepare a specimen (length of 3 cm). […] After allowing to stand for 60 minutes to make the specimen stable, a histamine (3×10^-7 M) was applied to the specimen at single application. Contraction of the specimen was determined and recorded using isotonic transducer. After repeating application of a histamine to make the contraction constant, a diluted solution of the test compound was applied. Three minutes after the application, a histamine was then added and an activity of suppressing contraction was examined.

In a further series the test system is male ICR mice. In words: Toxicity Test (mouse acute toxicity, minimum lethal dose). As to conditions: po, observed for 24 hours, head prints (10 mg/kg-po). The class given is in vivo. An excerpt: The test compounds were orally administered to male ICR mice (weighing to 30 g) after fasting overnight. […] The results were expressed by minimum lethal dose. Toxicity of any compounds of the present invention were weaker than that of ketotifen which was a reference compound.

The test system of series [3] is mouse biphasic allergic dermal reaction. The series can be described thus: Mouse Biphasic Allergic Dermal Reaction. The class given is in vivo, Female Balb/c mice. As to conditions: for inhibition in vivo at 0.1 mg/kg / inhibition in vivo at 1 mg/kg: Mus musculus, oral; for suppression of the late allergic reaction (in words): edema after 24 hours. As to the method:
Female Balb/c mice (weighing 18 to 25 g) were subjected to passive sensitization by intravenous administration of 1 ml of anti-DNP monoclonal IgE antibody showing 1:1024 of antibody titer. 24 hours after the sensitization, 25 μl of 0.15% dinitrofluorobenzene (DNFB) were applied to both sides of right and left auricles of mouse for inducing allergic reactions. Thickness of auricles were measured using Dial Thickness Gauge before the challenge with DNFB, and 1 and 24 hours after the challenge. And then, increase in thickness of auricles at 1 hour after the challenge (edema caused by immediate allergic reaction) and that at 24 hours after the challenge (edema caused by late allergic reaction) were calculated against the thickness of auricles before the challenge with DNFB, respectively.
Suppression rate was expressed by relative ratio (%) to the value in control in which a solvent was administered.
Test compounds, diphenhydramine which is a existing classical antihistamic drug, amlexanox which is an antiallergic drug and dexamethasone which is a steroidal drug were administered orally (partly intraperitoneally) once before antigen challenge.
The above test was performed by using a mouse biphasic allergic dermal reaction model which was a new model [see, Sakurai T, Inagaki, N. and Nagai, H Life Sci., 54, PL291-295 (1994)]. In this model, the immediate allergic reaction was induced by mediator release from mast cell at 1 hour after the challenge, and the late allergic reaction with inflammatory cells such as eosinophil (edema after 24 hours) was induced after 24 hours from the challenge.

[4] abbreviates: 1 h, read-out: immediate edema (1 hr) suppression (%).
[5] abbreviates: 24 h, read-out: late edema (24 hr) suppression (%).

The EC50 is the concentration giving half of the maximal effect. With `O=S(=O)(CCCCCCN1CCN(C(c2ccccc2)c2cccc(Cl)c2)CC1)NC1CC1` (stereo not shown) [Example 120], in series [1], the inhibition in vivo at 10 mg/kg amounted to 93.4%. For the same compound, the concentration for a half-maximal effect (EC50) in series [2] was determined as 0.7 µM. The “mouse acute toxicity (lethal dose)” value in the series on male ICR mice is greater than 500 mg/kg. In series [3] (setting [4]), the inhibition in vivo at 0.1 mg/kg stood at 26.1% and the inhibition in vivo at 1 mg/kg is 56.5%. Further, in series [3] (setting [5]), the inhibition in vivo at 0.1 mg/kg was 7.1% and the inhibition in vivo at 1 mg/kg was 25%. For the same compound, in series [3], the “suppression of the late allergic reaction (in words)” value (shortened to “suppression”) is listed as “showed strong activity of suppressing the late allergic reaction”.

Turning to `O=S(=O)(CCCCCCN1CCN(C(c2ccc(F)cc2)c2ccccn2)CC1)NC1CCCC1` (stereo not shown) [Example 61], the inhibition in vivo at 10 mg/kg in series [1] stood at 89.7%. For the same compound, the EC50 in series [2] is 0.31 µM. Moreover, in the series on male ICR mice, the “mouse acute toxicity (lethal dose)” value is greater than 500 mg/kg. Further, the inhibition in vivo at 0.1 mg/kg in series [3] (setting [4]) came to 5%. Moreover, in series [3] (setting [5]), the inhibition in vivo at 0.1 mg/kg is 37% and the inhibition in vivo at 1 mg/kg stood at 44.4%. Moreover, the “suppression” value in series [3] was “showed strong activity of suppressing the late allergic reaction”.

For `O=S(=O)(CCCCCCN1CCN(C(c2ccccc2)c2ccc(Cl)cc2)CC1)NC1CC1` (stereo not shown) [Example 54], in series [1], the inhibition in vivo at 10 mg/kg was determined as 89.2%. Further, the EC50 in series [2] was determined as 0.42 µM. Moreover, the “mouse acute toxicity (lethal dose)” value in the series on male ICR mice is on record as greater than 500 mg/kg. Besides, in series [3] (setting [4]), the inhibition in vivo at 0.1 mg/kg amounted to 19% and the inhibition in vivo at 1 mg/kg was 52.4%. In series [3] (setting [5]), the inhibition in vivo at 0.1 mg/kg is 37% and the inhibition in vivo at 1 mg/kg was found to be 51.9%. Also, the “suppression” value in series [3] is given as “showed strong activity of suppressing the late allergic reaction”.

With `O=S(=O)(CCCCCCN1CCN(C(c2ccccc2)c2ccc(Cl)cc2)CC1)NC1CCCCC1` (stereo not shown) [Example 143], in series [1], the inhibition in vivo at 10 mg/kg was found to be 87.8%. Moreover, in series [2], the EC50 amounted to 2.8 µM. The “mouse acute toxicity (lethal dose)” value in the series with male ICR mice is greater than 500 mg/kg. In series [3] (setting [4]), the inhibition in vivo at 0.1 mg/kg worked out at 24% and the inhibition in vivo at 1 mg/kg turned out to be 40%. In addition, in series [3] (setting [5]), the inhibition in vivo at 0.1 mg/kg turned out to be 4% and the inhibition in vivo at 1 mg/kg was determined as 28%. Besides, the “suppression” value in series [3] is reported as “showed strong activity of suppressing the late allergic reaction”.

On to `O=S(=O)(CCCCCCN1CCN(C(c2ccc(F)cc2)c2ccccn2)CC1)NC1CC1` (stereo not shown) [Example 56], for which the inhibition in vivo at 10 mg/kg in series [1] came out at 94.5%. Moreover, the EC50 in series [2] turned out to be 0.44 µM. Also, the “mouse acute toxicity (lethal dose)” value with male ICR mice is listed as greater than 500 mg/kg. The inhibition in vivo at 1 mg/kg in series [3] (setting [4]) came out at 15.8%. For the same compound, in series [3] (setting [5]), the inhibition in vivo at 0.1 mg/kg worked out at 3.8% and the inhibition in vivo at 1 mg/kg was found to be 34.6%. The “suppression” value in series [3] is given as “showed strong activity of suppressing the late allergic reaction”.

As to `O=S(=O)(CCCCCCN1CCN(C(c2ccccc2)c2ccc(Cl)cc2)CC1)NC1CCC1` (stereo not shown) [Example 128], the inhibition in vivo at 10 mg/kg in series [1] amounted to 86.1%. For the same compound, in series [2], the EC50 came to 0.32 µM. Further, the “mouse acute toxicity (lethal dose)” value with male ICR mice is greater than 500 mg/kg. In addition, in series [3] (setting [4]), the inhibition in vivo at 0.1 mg/kg was found to be 32% and the inhibition in vivo at 1 mg/kg was found to be 28%. Further, in series [3] (setting [5]), the inhibition in vivo at 0.1 mg/kg was found to be 36% and the inhibition in vivo at 1 mg/kg was 40%. Also, in series [3], the “suppression” value was “showed strong activity of suppressing the late allergic reaction”.

`O=S(=O)(CCCCCCCCN1CCN(C(c2ccccc2)c2ccc(Cl)cc2)CC1)NC1CC1` (stereo not shown) [Example 116]: in series [1], the inhibition in vivo at 10 mg/kg is 70.2%. The 50% effective concentration (EC50) in series [2] was determined as 0.12 µM. Besides, the “mouse acute toxicity (lethal dose)” value in the series with male ICR mice was greater than 500 mg/kg.
